Experimental data as given in the supplement of paper PMC10307832.

How the values were obtained:
Assay in all cases: relative viability (nuclei count vs DMSO), 5 days (fraction); higher = more cells survive
Tosedostat + Vorinostat = compound: CC(C)C[C@@H](C(=O)N[C@H](C(=O)OC1CCCC1)c1ccccc1)[C@H](O)C(=O)NO [Tosedostat] + O=C(CCCCCCC(=O)Nc1ccccc1)NO [Vorinostat] (partner 1 µM)
Procedure, shortened: (§1)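 Five library-drug doses in √10 steps were combined with a fixed anchor-drug dose, or a single drug was given alone, by pin tool to lung cancer cell lines in 1536-well plates the day after seeding. Nuclei were stained and counted after 5 days. Relative viability is the nuclei count in treated wells over that in vehicle wells, taken as the median of duplicate plates.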

Tosedostat + Foretinib = compound: CC(C)C[C@@H](C(=O)N[C@H](C(=O)OC1CCCC1)c1ccccc1)[C@H](O)C(=O)NO [Tosedostat] + COc1cc2c(Oc3ccc(NC(=O)C4(C(=O)Nc5ccc(F)cc5)CC4)cc3F)ccnc2cc1OCCCN1CCOCC1 [Foretinib] (partner 0.25 µM)
Procedure, shortened: as §1

[1] = compound: CC1=NN=C(O1)C2=NN=C(C=C2)N3CCC(CC3)OC4=C(C=CC(=C4)F)Cl + CC(=O)Nc1cccc(-n2c(=O)n(C3CC3)c(=O)c3c(Nc4ccc(I)cc4F)n(C)c(=O)c(C)c32)c1 [Trametinib] (partner 0.02 µM)
Procedure, shortened: as §1

[2] = compound: CC1=NN=C(O1)C2=NN=C(C=C2)N3CCC(CC3)OC4=C(C=CC(=C4)F)Cl + CC1(C)CCC(c2ccc(Cl)cc2)=C(CN2CCN(c3ccc(C(=O)NS(=O)(=O)c4ccc(N[C@H](CCN5CCOCC5)CSc5ccccc5)c(S(=O)(=O)C(F)(F)F)c4)cc3)CC2)C1 [Navitoclax] (partner 0.5 µM)
Procedure, shortened: as §1

| Cell Line | relative viability (Tosedostat + Vorinostat; first compound 0.02 µM) | relative viability (Tosedostat + Vorinostat; first compound 0.06325 µM) | relative viability (Tosedostat + Vorinostat; first compound 0.2 µM) | relative viability (Tosedostat + Vorinostat; first compound 0.6325 µM) | relative viability (Tosedostat + Vorinostat; first compound 2 µM) | relative viability (Tosedostat + Foretinib; first compound 0.02 µM) | relative viability (Tosedostat + Foretinib; first compound 0.06325 µM) | relative viability (Tosedostat + Foretinib; first compound 0.2 µM) | relative viability (Tosedostat + Foretinib; first compound 0.6325 µM) | relative viability (Tosedostat + Foretinib; first compound 2 µM) | relative viability ([1]; first compound 0.253 µM) | relative viability ([1]; first compound 0.8 µM) | relative viability ([1]; first compound 2.53 µM) | relative viability ([1]; first compound 8 µM) | relative viability ([2]; first compound 0.253 µM) | relative viability ([2]; first compound 0.8 µM) | relative viability ([2]; first compound 2.53 µM) | relative viability ([2]; first compound 8 µM) |
| --- | --- | --- | --- | --- | --- | --- | --- | --- | --- | --- | --- | --- | --- | --- | --- | --- | --- | --- |
| 201T | 1.01 | 0.997 | 0.99 | 0.962 | 0.981 | 1.11 | 1.24 | 1.22 | 1.32 | 1.17 | 0.414 | 0.425 | 0.405 | 0.384 | 0.542 | 0.627 | 0.53 | 0.529 |
| A549 | – | – | – | – | – | 0.925 | 0.967 | 0.998 | 0.974 | 0.652 | – | – | – | – | 0.778 | 0.652 | 0.599 | 0.587 |
| A-427 | 0.893 | 0.893 | 0.85 | 0.853 | 0.801 | 0.979 | 1 | 1.07 | 1.12 | 0.877 | 0.818 | 0.711 | 0.869 | 0.825 | 0.86 | – | 0.771 | 0.631 |
| ABC-1 | 1.33 | 1.29 | 0.954 | 0.974 | 0.693 | 1.23 | 0.971 | 1.02 | 1.18 | 1.11 | – | – | – | – | – | – | – | – |
| BEN | 0.645 | 0.602 | 0.678 | 0.761 | 0.888 | 0.713 | 0.825 | 0.799 | 0.878 | 0.846 | 1.1 | 1.12 | 1.03 | 1.17 | 0.0638 | 0.0498 | 0.058 | 0.141 |
| CAL-12T | 1.05 | 0.678 | 0.656 | 0.572 | 0.685 | 1.15 | 1.04 | 1.22 | 1.11 | 1.05 | 0.337 | 0.313 | 0.255 | 0.217 | 1 | 1.09 | 0.834 | 1 |
| COR-L23 | 0.57 | 0.454 | 0.38 | 0.343 | 0.399 | 1.04 | 1.03 | 0.975 | 1.07 | 1.06 | 0.498 | 0.396 | 0.529 | 0.444 | 0.815 | 0.729 | 0.789 | 0.629 |
| COR-L 105 | 0.92 | 0.825 | 1.1 | 0.785 | 0.759 | 1.3 | 0.8 | 1.06 | 0.753 | 0.69 | 0.488 | 0.424 | 0.414 | 0.429 | 0.686 | 0.846 | 0.622 | 0.727 |
| Calu-6 | – | – | – | – | – | 1.04 | 0.858 | 0.826 | 0.638 | 0.559 | – | – | – | – | 0.667 | 0.673 | 0.651 | 0.612 |
| ChaGo-K-1 | 0.803 | 0.754 | 0.771 | 0.717 | 0.62 | 0.911 | 0.934 | 0.976 | 0.833 | 0.709 | 0.649 | 0.555 | 0.613 | 0.57 | 0.678 | 0.624 | 0.632 | 0.622 |
| EBC-1 | – | – | – | – | – | 0.112 | 0.0828 | 0.0952 | 0.115 | 0.117 | – | – | – | – | 0.352 | 0.375 | 0.26 | 0.276 |
